The source made the active and inactive calls. No cut-off for these calls is given here.
Experiments:
PANC-1 [1] = assay: Antiproliferative activity against human PANC1 cells at 700 nM after 48 hrs by propidium iodide staining based fluorometry relative to control; type: functional
HCT-116 [2] = assay: Antiproliferative activity against human HCT116 cells at 700 nM after 48 hrs by propidium iodide staining based fluorometry relative to control; type: functional
Calu-1 [3] = assay: Antiproliferative activity against human Calu1 cells at 700 nM after 48 hrs by propidium iodide staining based fluorometry relative to control; type: functional
NCI-H460 [4] = assay: Antiproliferative activity against human H460 cells at 700 nM after 48 hrs by propidium iodide staining based fluorometry relative to control; type: functional
ACHN [5] = assay: Antiproliferative activity against human ACHN cells at 700 nM after 48 hrs by propidium iodide staining based fluorometry relative to control; type: functional
THP-1 (Homo sapiens) [6] = assay: Antiinflammatory activity in human THP1 cells assessed as inhibition of IL-6 production at 10 uM relative to control; parameters: scale not given: the % may be the effect or the level left
ACHN (Homo sapiens) [7] = assay: Antiproliferative activity against human ACHN cells at 1 uM relative to control
THP-1 [8] = assay: Antiinflammatory activity in PMA-differentiated human THP1 cells assessed as inhibition of LPS-induced TNF-alpha production after 24 hrs by ELISA; type: functional, cell-based; settings: THP-1, 24 h
HCT-116 [9] = assay: Antiproliferative activity against human HCT116 cells after 48 hrs by propidium iodide staining based fluorometry; type: functional, cell-based; settings: HCT-116, 48 h
THP-1 [10] = assay: Antiinflammatory activity in PMA-differentiated human THP1 cells assessed as inhibition of LPS-induced IL-6 production at 10 uM after 24 hrs by ELISA relative to control; type: functional; settings: THP-1, 24 h
THP-1 (Homo sapiens) [11] = assay: Antiinflammatory activity in human THP1 cells assessed as inhibition of TNF-alpha production at 10 uM relative to control; parameters: scale not given: the % may be the effect or the level left
ACHN [12] = assay: Antiproliferative activity against human ACHN cells after 48 hrs by propidium iodide staining based fluorometry; type: functional, cell-based
[13] = test system: MDA-MB-231 (Homo sapiens); assay: Antiproliferative activity against human MDA-MB-231 cells at 1 uM relative to control; settings: mda-mb-231, 1 µM
ACHN [14] = assay: Antiproliferative activity against human ACHN cells at 10 uM relative to control; type: functional
[15] = test system: MIA PaCa-2 (Homo sapiens); assay: Antiproliferative activity against human MIA PaCa-2 cells at 1 uM relative to control
MIA PaCa-2 = assay: Antiproliferative activity against human MIAPaCa2 cells at 10 uM relative to control; type: functional
PBMC = assay: Antiinflammatory activity in human PBMC assessed as inhibition of LPS-induced TNF-alpha production incubated for 30 mins followed by LPS addition measured after 4.5 hrs by ELISA; type: functional, cell-based
Calu-1 [16] = assay: Antiproliferative activity against human Calu1 cells after 48 hrs by propidium iodide staining based fluorometry; type: functional, cell-based; settings: Calu-1, 48 h
PANC-1 [17] = assay: Antiproliferative activity against human PANC1 cells after 48 hrs by propidium iodide staining based fluorometry; type: functional, cell-based; settings: PANC-1, 48 h
THP-1 [18] = assay: Antiinflammatory activity in PMA-differentiated human THP1 cells assessed as inhibition of LPS-induced IL-6 production after 24 hrs by ELISA; type: functional, cell-based; settings: THP-1, 24 h
THP-1 [19] = assay: Antiinflammatory activity in PMA-differentiated human THP1 cells assessed as inhibition of LPS-induced IL-6 production at 1 uM after 24 hrs by ELISA relative to control; type: functional; settings: THP-1, 24 h
THP-1 [20] = assay: Cytotoxicity against PMA-differentiated human THP1 cells assessed as reduction in cell viability after 4.5 hrs by MTS assay; type: cell-based; settings: THP-1, 4.5 h
THP-1 [21] = assay: Antiinflammatory activity in PMA-differentiated human THP1 cells assessed as inhibition of LPS-induced TNF-alpha production at 1 uM after 24 hrs by ELISA relative to control; type: functional; settings: THP-1, 24 h
THP-1 [22] = assay: Antiinflammatory activity in PMA-differentiated human THP1 cells assessed as inhibition of LPS-induced TNF-alpha production at 10 uM after 24 hrs by ELISA relative to control; type: functional; settings: THP-1, 24 h
NCI-H460 [23] = assay: Antiproliferative activity against human H460 cells after 48 hrs by propidium iodide staining based fluorometry; type: functional, cell-based; settings: NCI-H460, 48 h
PANC-1 [24] = assay: Antiproliferative activity against human PANC1 cells at 500 nM after 48 hrs by propidium iodide staining based fluorometry relative to control; type: functional
Calu-1 [25] = assay: Antiproliferative activity against human Calu1 cells at 500 nM after 48 hrs by propidium iodide staining based fluorometry relative to control; type: functional
HCT-116 [26] = assay: Antiproliferative activity against human HCT116 cells at 500 nM after 48 hrs by propidium iodide staining based fluorometry relative to control; type: functional
NCI-H460 [27] = assay: Antiproliferative activity against human H460 cells at 500 nM after 48 hrs by propidium iodide staining based fluorometry relative to control; type: functional
ACHN [28] = assay: Antiproliferative activity against human ACHN cells at 500 nM after 48 hrs by propidium iodide staining based fluorometry relative to control; type: functional
ACHN (Homo sapiens) [29] = assay: Antiproliferative activity against human ACHN cells at 10 uM relative to control
A-549 (Homo sapiens) = assay: Antiproliferative activity against human A-549 cells at 10 uM relative to control
[30] = test system: MDA-MB-231 (Homo sapiens); assay: Antiproliferative activity against human MDA-MB-231 cells at 10 uM relative to control

Row | IC50 (THP-1 [8]) [µM] | IC50 (HCT-116 [9]) [µM] | IC50 (ACHN [12]) [µM] | IC50 (Calu-1 [16]) [µM] | IC50 (PANC-1 [17]) [µM] | IC50 (THP-1 [18]) [µM] | IC50 (NCI-H460 [23]) [µM] | SMILES | Activity (THP-1 (Homo sapiens) [6]) [%] | Activity (ACHN (Homo sapiens) [7]) [%] | inhibition at 10 µM (THP-1 [10]) [%] | Activity (THP-1 (Homo sapiens) [11]) [%] | Activity [13] [%] | Activity [15] [%] | Activity (MIA PaCa-2) [%] | inhibition at 1 µM (THP-1 [19]) [%] | IC50 (THP-1 [20]) [µM] | inhibition at 1 µM (THP-1 [21]) [%] | inhibition at 10 µM (THP-1 [22]) [%] | Activity (ACHN (Homo sapiens) [29]) [%] | Activity (A-549 (Homo sapiens)) [%] | also measured
1 |  |  |  |  |  |  |  | CN1CC[C@H](c2c(O)cc(O)c3c(=O)cc(-c4ccccc4Cl)oc23)[C@H](O)C1 [ALVOCIDIB] |  |  |  |  |  |  |  |  |  |  |  |  |  | Activity (PANC-1 [1]): 78%; Activity (HCT-116 [2]): 71%; Activity (Calu-1 [3]): 74%; Activity (NCI-H460 [4]): 88%; Activity (ACHN [5]): 71%
2 | 4.9 | 1 | 2.8 | 1.2 | 1.5 | < 0.03 | 1.3 | Cn1c(=O)c2c(c3ccccc31)OC(N)=C(C#N)C2c1ccccc1 (centres undefined) | 66 | 61 | 66 | 0 | 0 | 45 | 41 | 0 | > 10 | 0 | 0 |  |  | Activity (ACHN [14]): 82%; inhibition (PBMC): inactive
3 |  |  |  |  |  |  |  | Nc1ccn([C@@H]2O[C@H](CO)[C@@H](O)C2(F)F)c(=O)n1 [GEMCITABINE] |  |  |  |  |  |  |  |  |  |  |  |  |  | Activity (PANC-1 [24]): 74%; Activity (Calu-1 [25]): 79%; Activity (HCT-116 [26]): 73%; Activity (NCI-H460 [27]): 71%; Activity (ACHN [28]): 73%
4 |  |  |  |  |  |  |  | Cn1c(=O)c2c(c3ccccc31)OC(N)=C(C#N)C2c1ccccc1[N+](=O)[O-] (centres undefined) | 78 | 49 | 78 | 36 | 0 | 35 | 51 | 0 |  | 0 | 0 | 68 | 36 | 
5 | 0.3 | 6.6 | 1.6 | 1.1 | 2.5 | 0.25 | 1.9 | Cn1c(=O)c2c(c3ccccc31)OC(N)=C(C#N)C2c1cccc([N+](=O)[O-])c1 (centres undefined) | 79 | 79 | 79 | 43 | 53 | 65 | 70 | 0 | > 10 | 11 | 0 | 83 | 71 | Activity [30]: 65%; IC50 (PBMC): 0.2 µM; inhibition (PBMC): Dose-dependent effect
6 |  |  |  |  |  |  |  | Cn1c(=O)c2c(c3ccccc31)OC(N)=C(C#N)C2c1ccc(F)cc1 (centres undefined) | 66 | 27 | 66 | 0 | 0 | 16 | 45 | 0 |  | 0 | 0 | 50 | 22 | 
7 | 0.5 | 0.9 | 0.9 | 0.8 | 0.8 | 0.08 | 0.8 | Cn1c(=O)c2c(c3ccccc31)OC(N)=C(C#N)C2c1cccc(Br)c1 (centres undefined) | 82 | 73 | 82 | 38 | 45 | 61 | 70 | 0 | 10 | 2 | 0 | 75 | 78 | Activity [30]: 54%; IC50 (PBMC): 0.5 µM

— ChEMBL document CHEMBL4251708, “Synthesis and Biological Screening of Pyrano[3,2-c]quinoline Analogues as Anti-inflammatory and Anticancer Agents” (ACS Med Chem Lett, 2018)
